# Test system: T1R1/T1R3 umami receptor
# Experiment: in silico modelling and in vitro screening for binding and activation of the umami receptor
# Format: cell-based, cat
# Settings: feline umami receptor
# Protocol: In vitro screening was carried out in order to establish which amino acids bind and activate the umami receptor.
# In vitro screening was carried out in order to establish which nucleotides bind and activate the umami receptor.
row,SMILES,binding to the feline umami receptor
1,N[C@@H](CCC(=O)O)C(=O)O [glutamate],does not bind

# Same assay, conditions: non-human umami receptor; in silico modelling and in vitro assays
row,SMILES,ability to bind to and activate the umami receptor
1,N[C@@H](CS)C(=O)O [cysteine],able to bind to and activate the umami receptor to different extents
2,N[C@@H](Cc1c[nH]cn1)C(=O)O [histidine],able to bind to and activate the umami receptor to different extents
3,N[C@@H](Cc1c[nH]c2ccccc12)C(=O)O [tryptophan],able to bind to and activate the umami receptor to different extents
4,N[C@@H](Cc1ccc(O)cc1)C(=O)O [tyrosine],able to bind to and activate the umami receptor to different extents
5,CC(C)C[C@H](N)C(=O)O [leucine],able to bind to and activate the umami receptor to different extents
6,NC(=O)C[C@H](N)C(=O)O [asparagine],able to bind to and activate the umami receptor to different extents
7,N[C@@H](Cc1ccccc1)C(=O)O [phenylalanine],able to bind to and activate the umami receptor to different extents
8,N[C@@H](CO)C(=O)O [serine],able to bind to and activate the umami receptor to different extents
9,CSCC[C@H](N)C(=O)O [methionine],able to bind to and activate the umami receptor to different extents
10,NCC(=O)O [glycine],able to bind to and activate the umami receptor to different extents
11,C[C@H](N)C(=O)O [alanine],able to bind to and activate the umami receptor to different extents

# Source: patent US20150250210A1, “FLAVOUR ADDITIVES” (MARS INCORPORATED, priority 2012, published 2015)
